Experimental data published in patent US20200291100A1, “TREATMENT OF AGE-RELATED AND MITOCHONDRIAL DISEASES BY INHIBITION OF HIF-1 ALPHA FUNCTION” (President and Fellows of Harvard College, priority 2012, published 2020).

Key:
SIRT1 KO mice = assay: NMN treatment of inducible SIRT1 KO mice; assay type: in vivo, mouse; details: skeletal muscle of SIRT1 KO versus WT mice
Protocol: Whole body adult-inducible SIRT1 knockout mice were treated with tamoxifen for 5 weeks and the efficiency of deletion in DNA from tail samples was determined by PCR. Animals were then maintained on regular diet for 4 months. For the fasting experiments, mice were fasted for 16 hrs prior to sacrifice. All animal care followed the guidelines and was approved by the Institutional Animal Care and Use Committees (IACUCs) at Harvard
The inducible SIRT1 KO mouse allowed the testing of the involvement of SIRT1 in the effects of NMN in vivo.
C57BL/6J mice of 6, 22, or 30 months of age were obtained from the National Institutes of Aging mouse aging colony. Additionally 22 months old caloric restricted mice were also obtained from the National Institutes of Aging mouse aging colony. EGLN1 KO, SIRT1 KO and SIRT1 OE mice were generated as previously described (Minamishima et al., 2008; Price et al., 2012). […]
RNA from skeletal muscle tissue and C2C12 cells were extracted with RNeasy mini kit (Qiagen) according to the instructions and quantified using the NanoDrop 1000 spectrophotometer (Thermo Scientific). cDNA was synthesized with the iSCRIP cDNA synthesis kit (BioRad) using 600 ng of RNA. Quantitative RT-PCR reactions were performed using 1 μM of primers and LightCycler® 480 SYBR Green Master (Roche) on an LightCycler® 480 detection system (Roche). […]

C2C12 myoblasts = assay: DMOG treatment of C2C12 myoblasts, mtDNA content and ETC gene expression; assay type: cell-based, mouse; details: 16 h
Protocol: To test if the normal hypoxic response reproduces the effect of a SIRT1 deletion by causing genome asynchrony, C2C12 myoblasts were grown under hypoxic conditions (1% oxygen) or treated with dimethyloxaloylglycine (DMOG), a HIFα prolyl hydroxylase inhibitor that stabilizes HIF.
C2C12 cell line (ATCC) was cultured in low glucose Dulbecco's modified eagle medium (DMEM) (Invitrogen) supplemented with 10% FBS (Invitrogen) and a mix of antibiotic and antimycotic (Invitrogen). To inhibit SIRT1, cells were treated the vehicle (0.001% DMSO) or 10 μM EX-527 (Tocris) for 12 h. C2C12 myoblasts were infected with an empty or SIRT1 adenovirus as described before (Gerhart-Hines et al., 2007) and the media was replaced with fresh DMEM for additional 48 h, after that the cells were treated as described before. To test the effects of hypoxia and HIFα stabilization in genome asyncrony, C2C12 myoblasts were exposed to 1% oxygen for 16 h or treated with the vehicle (0.001% DMSO) or DMOG (Cayman) for the same period of time.
(§1) RNA from skeletal muscle tissue and C2C12 cells were extracted with RNeasy mini kit (Qiagen) according to the instructions and quantified using the NanoDrop 1000 spectrophotometer (Thermo Scientific). cDNA was synthesized with the iSCRIP cDNA synthesis kit (BioRad) using 600 ng of RNA. Quantitative RT-PCR reactions were performed using 1 μM of primers and LightCycler® 480 SYBR Green Master (Roche) on an LightCycler® 480 detection system (Roche). Calculations were performed by a comparative method (2-ΔCT) using 18S as an internal control. For mtDNA analysis, total DNA was extracted with DNeasy blood and tissue kit (Qiagen). mtDNA was amplified using primers specific for the mitochondrial cytochrome c oxidase subunit 2 (COX2) gene and normalized to genomic DNA by amplification of the ribosomal protein s18 (rps18) nuclear gene. Primers were designed using the IDT software (IDT) and the primer sequences can be found in Table 1.

[1] = test system: PGC-1α/β knockout myotubes; assay: HIF stabilizing compounds in PGC-1α/β knockout myotubes with or without SIRT1 overexpression; assay type: cell-based, mouse
Protocol: Next whether the ability of SIRT1 to regulate mitochondrial function independently of PGC-1α/β is mediated by HIF-1α was tested. […] Furthermore, cells expressing a mutant allele of HIF-1α that is constitutively stabilized due to the replacement of the two hydroxylated prolines with alanines (DPA) (FIG. 7A), caused genome asynchrony similar to hypoxia and treatment with DMOG (FIG. 7B).
Primary myoblasts cells were isolated from WT, SIRT1 KO (Price et al., 2012) and PGC-1α/β KO (Zechner et al., 2010) mice as previously described (Price et al., 2012). WT and PGC-1α/β KO primary myoblasts were plated and allowed to differentiate into myotubes by replacing the media with low glucose DMEM supplemented with 2% horse serum (Sigma-Aldrich) for 4 days. After the differentiation the cells were infected with empty vector or flag-SIRT1 adenovirus as described before (Gerhart-Hines et al., 2007). Media was replaced with fresh DMEM supplemented with 2% horse serum (Sigma-Aldrich) for an additional 48 hr and, after that the cells were harvested for the different assays as described. To investigate the role of HIF-1α in genome asynchrony, PGC-1α/β KO primary myotubes were treated for 12 hours with 1 mM DMOG (Sigma) or 10 μM DFO (Sigma), 24 h after infection with empty vector of flag-SIRT1 adenovirus or after 12 h treatment with […] NMN (Sigma).
as §1, with “Primers were designed using the IDT software (IDT) and the primer sequences can be found in Table 1.” left out
Protein extracts from tissue or C2C12 cells were obtained by lysis in ice-cold lysis buffer (150 mM NaCl, 10 mM Tris HCl (pH 7.4), 1 mM EDTA, 1 mM EGTA, 1% Triton X-100, 0.5% NP-40) supplemented with a cocktail of protease and phosphatase inhibitors (Roche). Protein content was determined by the Bradford protein assay (Biorad), and 50 μg proteins were run on SDS-PAGE under reducing conditions. […] The immunostaining was detected using horseradish peroxidase-conjugated anti-rabbit or anti-mouse immunoglobulin for 1 h at room temperature.

Structure (SMILES) | ability of NMN to induce mitochondrially-encoded genes (SIRT1 KO mice; qPCR) | ability of NMN to improve mitochondrial function (SIRT1 KO mice; mitochondrial membrane potential (FIG. 10I)) | expression of mitochondrially-encoded ETC genes (C2C12 myoblasts) | expression of nuclear-encoded ETC components (C2C12 myoblasts) | mtDNA content (C2C12 myoblasts) | expression of mitochondrial-encoded genes ([1]; DMOG compared to vehicle control, no SIRT1 overexpression) | HIF-1α protein (immunoblot) ([1]; DMOG versus DMSO (FIG. 21C)) | effect on induction of mitochondrial ETC genes by SIRT1 overexpression ([1]; SIRT1 adenovirus, 1 mM DMOG or 10 μM DFO, 12 hours)
NC(=O)c1ccc[n+]([C@@H]2O[C@H](COP(=O)([O-])O)[C@@H](O)[C@H]2O)c1 [NMN, nicotinamide mononucleotide] | lost in animals lacking SIRT1 | lost in animals lacking SIRT1 | – | – | – | – | – | –
COC(=O)CNC(=O)C(=O)OC [DMOG, dimethyloxaloylglycine] | – | – | specific decline | but not the nuclear-encoded components | specific decline | induced a decline | stabilizes HIF-1α protein | completely blocked
